This note sets out measurements from paper PMC6576746, “Rational discovery of dual-indication multi-target PDE/Kinase inhibitor for precision anti-cancer therapy using structural systems pharmacology” (PLoS Computational Biology, 2019).

What all share (assay): biochemical
What all share (design): DiscoverX KinomeScan competition binding assay across human kinases; per cent of control at 10 and 100 uM

The target of one assay is STK35 (Homo sapiens, UniProt Q8TDR2). As to conditions: competition binding, % of control; read-out: Percent Control (100 uM Levosimendan). The gist of the method: (§1)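 Binding is expressed as %control, normalised between positive and negative control signals. The compound (levosimendan) was tested at 10 μM and 100 μM in the DiscoverX KinomeScan competition binding format against human kinases.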

The target in another assay is PIM3 (Homo sapiens, UniProt Q86V86). As to conditions: competition binding, % of control. The gist of the method: as §1
A further assay deals with WNK2 (Homo sapiens, UniProt Q9Y3S1). As to conditions: competition binding, % of control; read-out: Percent Control (100 uM Levosimendan). In short, it runs like this:
as §1

A further assay has as its target ABL2 (Homo sapiens, UniProt P42684). Particulars: competition binding, % of control; read-out: Percent Control (100 uM Levosimendan). In short, it runs like this: as §1
In the next assay the target is T1, DRAK2 (Homo sapiens, UniProt O94768).
T1 construct: gene STK17B
T1 sequence (O94768 whole entry): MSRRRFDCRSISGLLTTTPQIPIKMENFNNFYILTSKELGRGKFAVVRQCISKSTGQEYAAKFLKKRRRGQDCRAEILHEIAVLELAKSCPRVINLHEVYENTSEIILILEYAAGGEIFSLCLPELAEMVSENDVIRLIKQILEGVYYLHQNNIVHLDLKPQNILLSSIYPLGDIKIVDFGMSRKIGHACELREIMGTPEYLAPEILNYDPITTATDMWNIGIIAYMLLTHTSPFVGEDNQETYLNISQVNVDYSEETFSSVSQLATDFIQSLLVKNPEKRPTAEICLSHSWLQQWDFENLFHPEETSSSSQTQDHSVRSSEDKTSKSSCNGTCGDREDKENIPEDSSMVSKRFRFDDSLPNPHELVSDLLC
Particulars: competition binding, % of control. The gist of the method:
as §1

The target of the next assay is STK33 (Homo sapiens, UniProt Q9BYT3). As to conditions: competition binding, % of control; read-out: Percent Control (100 uM Levosimendan). The gist of the method:
as §1

A further assay addresses T2, YSK4 (Homo sapiens, UniProt Q56UN5).
T2 construct: gene MAP3K19
Particulars: competition binding, % of control. In short, it runs like this:
as §1

Assay [1] has as its target T3, ABL1(T315I)-nonphosphorylated (Homo sapiens, UniProt P00519, T315I).
T3 construct: nonphosphorylated
As to conditions: competition binding, % of control; read-out: Percent Control (100 uM Levosimendan). In short, it runs like this:
as §1

Another assay concerns the target SYK (Homo sapiens, UniProt P43405). As to conditions: competition binding, % of control; read-out: Percent Control (100 uM Levosimendan). The gist of the method:
as §1

The target of assay [2] is T4, JAK1(JH1domain-catalytic) (Homo sapiens, UniProt P23458).
T4 construct: JH1domain-catalytic
Particulars: competition binding, % of control; read-out: Percent Control (100 uM Levosimendan). The gist of the method:
as §1

The next assay addresses T5, MST2 (Homo sapiens, UniProt Q13188).
T5 construct: gene STK3
Particulars: competition binding, % of control; read-out: Percent Control (100 uM Levosimendan). In short, it runs like this: as §1

The target of assay [3] is EGFR(L747-S752del, P753S) (Homo sapiens, UniProt P00533, DEL747-752/P753S). Particulars: competition binding, % of control; read-out: Percent Control (100 uM Levosimendan). The gist of the method:
as §1

The next assay concerns the target T6, DCAMKL3 (Homo sapiens, UniProt Q9C098).
T6 construct: gene DCLK3
Particulars: competition binding, % of control; read-out: Percent Control (100 uM Levosimendan). In short, it runs like this:
as §1

Another assay concerns the target NEK11 (Homo sapiens, UniProt Q8NG66). As to conditions: competition binding, % of control; read-out: Percent Control (100 uM Levosimendan). In short, it runs like this:
as §1

In the next assay the target is CDK3 (Homo sapiens, UniProt Q00526). Particulars: competition binding, % of control; read-out: Percent Control (100 uM Levosimendan). In short, it runs like this:
as §1

Another assay addresses T7, SNARK (Homo sapiens, UniProt Q9H093).
T7 construct: gene NUAK2
As to conditions: competition binding, % of control; read-out: Percent Control (100 uM Levosimendan). The gist of the method:
as §1

The target in another assay is T8, AMPK-alpha2 (Homo sapiens, UniProt P54646).
T8 construct: gene PRKAA2
As to conditions: competition binding, % of control; read-out: Percent Control (100 uM Levosimendan). The gist of the method: as §1

The next assay deals with CSNK1A1L (Homo sapiens, UniProt Q8N752). Particulars: competition binding, % of control; read-out: Percent Control (100 uM Levosimendan). In short, it runs like this: as §1
Sequence of CSNK1A1L (Q8N752 whole entry): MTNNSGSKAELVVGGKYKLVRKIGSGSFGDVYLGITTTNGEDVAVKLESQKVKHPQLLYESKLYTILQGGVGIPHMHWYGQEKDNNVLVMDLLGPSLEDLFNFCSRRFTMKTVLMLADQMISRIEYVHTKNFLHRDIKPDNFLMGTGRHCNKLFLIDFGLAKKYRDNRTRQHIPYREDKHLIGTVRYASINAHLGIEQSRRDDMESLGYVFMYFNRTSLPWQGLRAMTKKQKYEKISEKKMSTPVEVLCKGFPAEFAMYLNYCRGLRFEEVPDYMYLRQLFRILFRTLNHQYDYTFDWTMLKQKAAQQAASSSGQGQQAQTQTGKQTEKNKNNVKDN
For the next assay, the target named is GSK3A (Homo sapiens, UniProt P49840). As to conditions: competition binding, % of control; read-out: Percent Control (100 uM Levosimendan). In short, it runs like this:
as §1

[4] abbreviates: read-out: Percent Control (10 uM Levosimendan).
Where [5] appears, read: read-out: Percent Control (100 uM Levosimendan).

T2 sequence (Q56UN5 whole entry): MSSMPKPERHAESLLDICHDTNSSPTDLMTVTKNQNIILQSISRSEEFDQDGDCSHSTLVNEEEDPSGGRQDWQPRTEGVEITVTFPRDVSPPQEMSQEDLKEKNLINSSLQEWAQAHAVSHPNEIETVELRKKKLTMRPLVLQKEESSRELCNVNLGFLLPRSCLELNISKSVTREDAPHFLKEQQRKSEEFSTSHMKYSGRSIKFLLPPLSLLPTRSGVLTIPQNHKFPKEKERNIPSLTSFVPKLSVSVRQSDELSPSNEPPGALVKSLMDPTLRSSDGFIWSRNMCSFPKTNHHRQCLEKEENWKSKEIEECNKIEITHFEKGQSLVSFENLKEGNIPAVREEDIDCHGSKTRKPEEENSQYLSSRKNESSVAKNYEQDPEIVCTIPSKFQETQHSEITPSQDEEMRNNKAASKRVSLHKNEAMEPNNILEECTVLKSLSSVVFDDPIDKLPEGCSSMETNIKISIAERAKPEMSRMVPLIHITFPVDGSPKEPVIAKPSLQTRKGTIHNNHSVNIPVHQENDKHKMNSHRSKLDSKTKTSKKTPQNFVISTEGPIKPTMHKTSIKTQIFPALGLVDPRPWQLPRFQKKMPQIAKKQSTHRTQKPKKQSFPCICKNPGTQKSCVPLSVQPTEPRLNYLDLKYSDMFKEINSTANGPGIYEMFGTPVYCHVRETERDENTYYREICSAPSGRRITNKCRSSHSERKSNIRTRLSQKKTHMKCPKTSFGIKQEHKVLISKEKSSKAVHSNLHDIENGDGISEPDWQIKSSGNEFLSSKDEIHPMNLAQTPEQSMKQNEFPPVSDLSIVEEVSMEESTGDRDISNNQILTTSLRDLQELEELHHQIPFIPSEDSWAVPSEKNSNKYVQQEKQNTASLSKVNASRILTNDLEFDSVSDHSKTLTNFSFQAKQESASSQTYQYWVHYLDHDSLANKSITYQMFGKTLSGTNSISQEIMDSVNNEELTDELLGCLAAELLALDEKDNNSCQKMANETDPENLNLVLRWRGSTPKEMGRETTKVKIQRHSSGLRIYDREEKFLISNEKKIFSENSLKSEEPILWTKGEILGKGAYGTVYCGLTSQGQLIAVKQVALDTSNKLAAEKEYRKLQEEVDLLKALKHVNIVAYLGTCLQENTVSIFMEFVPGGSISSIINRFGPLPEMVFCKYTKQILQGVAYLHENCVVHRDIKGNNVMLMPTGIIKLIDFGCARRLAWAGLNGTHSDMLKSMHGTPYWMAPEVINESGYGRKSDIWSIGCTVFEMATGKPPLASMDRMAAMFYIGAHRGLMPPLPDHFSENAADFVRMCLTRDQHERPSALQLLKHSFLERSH
Sequence of WNK2 (Q9Y3S1 whole entry): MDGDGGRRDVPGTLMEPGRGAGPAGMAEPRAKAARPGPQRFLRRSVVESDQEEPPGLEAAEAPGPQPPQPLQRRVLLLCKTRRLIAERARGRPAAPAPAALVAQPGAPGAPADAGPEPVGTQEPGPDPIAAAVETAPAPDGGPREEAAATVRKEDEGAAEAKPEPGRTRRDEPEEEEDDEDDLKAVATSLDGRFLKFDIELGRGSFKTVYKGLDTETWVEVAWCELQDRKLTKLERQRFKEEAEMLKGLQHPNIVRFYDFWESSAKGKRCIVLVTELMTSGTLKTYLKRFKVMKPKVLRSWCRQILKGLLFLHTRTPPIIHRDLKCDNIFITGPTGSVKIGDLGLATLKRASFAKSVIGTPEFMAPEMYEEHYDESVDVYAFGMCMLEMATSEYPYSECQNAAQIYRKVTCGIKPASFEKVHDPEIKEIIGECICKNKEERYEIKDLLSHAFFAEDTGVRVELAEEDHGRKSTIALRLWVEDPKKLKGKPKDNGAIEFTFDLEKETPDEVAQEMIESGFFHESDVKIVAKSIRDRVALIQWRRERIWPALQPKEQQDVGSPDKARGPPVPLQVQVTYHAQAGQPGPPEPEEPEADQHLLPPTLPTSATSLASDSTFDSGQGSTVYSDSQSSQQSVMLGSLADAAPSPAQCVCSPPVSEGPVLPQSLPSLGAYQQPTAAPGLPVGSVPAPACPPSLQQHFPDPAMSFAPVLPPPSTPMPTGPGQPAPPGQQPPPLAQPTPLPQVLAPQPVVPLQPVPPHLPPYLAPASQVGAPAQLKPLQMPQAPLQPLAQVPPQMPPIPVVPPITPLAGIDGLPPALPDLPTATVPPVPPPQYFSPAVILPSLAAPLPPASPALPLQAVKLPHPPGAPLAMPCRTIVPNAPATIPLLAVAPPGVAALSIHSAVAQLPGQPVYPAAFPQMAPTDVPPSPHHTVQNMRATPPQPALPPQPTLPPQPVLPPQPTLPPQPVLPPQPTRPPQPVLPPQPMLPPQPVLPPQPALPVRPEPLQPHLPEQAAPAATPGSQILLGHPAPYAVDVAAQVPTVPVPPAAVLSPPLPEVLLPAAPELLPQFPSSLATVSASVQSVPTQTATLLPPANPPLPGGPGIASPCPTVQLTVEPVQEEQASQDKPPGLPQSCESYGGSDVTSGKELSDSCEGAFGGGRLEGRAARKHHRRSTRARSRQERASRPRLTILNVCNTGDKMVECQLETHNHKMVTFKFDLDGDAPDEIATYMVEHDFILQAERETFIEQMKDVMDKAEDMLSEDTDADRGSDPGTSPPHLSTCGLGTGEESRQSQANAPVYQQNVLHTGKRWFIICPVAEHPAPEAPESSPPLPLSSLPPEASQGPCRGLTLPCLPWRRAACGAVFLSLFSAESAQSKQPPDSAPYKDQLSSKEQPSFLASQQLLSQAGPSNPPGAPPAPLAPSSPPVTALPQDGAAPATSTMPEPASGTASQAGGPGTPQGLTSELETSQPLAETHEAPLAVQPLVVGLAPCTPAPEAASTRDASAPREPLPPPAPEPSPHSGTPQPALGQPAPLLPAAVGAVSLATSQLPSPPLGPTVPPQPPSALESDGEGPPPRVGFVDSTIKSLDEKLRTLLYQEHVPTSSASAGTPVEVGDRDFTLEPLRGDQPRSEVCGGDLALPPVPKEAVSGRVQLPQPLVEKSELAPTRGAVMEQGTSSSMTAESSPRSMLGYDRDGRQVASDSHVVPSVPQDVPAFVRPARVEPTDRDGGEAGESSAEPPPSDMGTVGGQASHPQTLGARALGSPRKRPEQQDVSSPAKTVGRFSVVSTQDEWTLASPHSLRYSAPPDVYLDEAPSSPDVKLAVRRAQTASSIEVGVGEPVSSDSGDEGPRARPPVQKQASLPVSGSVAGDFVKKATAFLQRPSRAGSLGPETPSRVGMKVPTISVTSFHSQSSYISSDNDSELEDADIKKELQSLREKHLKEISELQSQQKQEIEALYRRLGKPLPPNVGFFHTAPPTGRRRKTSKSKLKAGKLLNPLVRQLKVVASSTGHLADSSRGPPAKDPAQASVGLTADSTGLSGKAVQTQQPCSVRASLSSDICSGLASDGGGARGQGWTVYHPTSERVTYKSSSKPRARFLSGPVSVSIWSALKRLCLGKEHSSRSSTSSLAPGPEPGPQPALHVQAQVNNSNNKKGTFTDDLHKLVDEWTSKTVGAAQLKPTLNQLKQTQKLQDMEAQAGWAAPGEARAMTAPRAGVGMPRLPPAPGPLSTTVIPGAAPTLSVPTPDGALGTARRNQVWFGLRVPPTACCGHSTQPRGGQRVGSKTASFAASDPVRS
Sequence of CDK3 (Q00526 whole entry): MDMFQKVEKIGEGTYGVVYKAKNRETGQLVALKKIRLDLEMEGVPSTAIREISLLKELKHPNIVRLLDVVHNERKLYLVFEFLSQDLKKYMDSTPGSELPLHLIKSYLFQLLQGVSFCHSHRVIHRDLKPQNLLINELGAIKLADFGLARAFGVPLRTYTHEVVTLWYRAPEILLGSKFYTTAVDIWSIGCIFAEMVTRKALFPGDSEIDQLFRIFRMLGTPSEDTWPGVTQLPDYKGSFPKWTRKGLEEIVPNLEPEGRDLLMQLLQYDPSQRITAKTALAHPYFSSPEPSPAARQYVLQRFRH

Turning to `C[C@@H]1CC(=O)NN=C1c1ccc(NN=C(C#N)C#N)cc1` [levosimendan], the remaining binding at 100 µM at STK35 turned out to be 81%; at PIM3 (setting [5]), 17%; at WNK2, 98%; on ABL2, 89%; at DRAK2 (setting [5]), 20%; at STK33, 100%. Moreover, the remaining binding at 100 µM at YSK4 (setting [5]) worked out at 10%; in assay [1], 100%; at SYK it was 78%; in [2], 100%; at MST2 it was 100%; in assay [3], 91%. Besides, the remaining binding at 100 µM was found to be 100% at DCAMKL3; 100% at NEK11; 100% at CDK3; 100% on SNARK; 83% at AMPK-alpha2; 55% on CSNK1A1L. For the same compound, the remaining binding at 100 µM on GSK3A is 100%. The remaining binding at 10 µM stood at 75% on PIM3 (setting [4]), 99% at DRAK2 (setting [4]) and 48% at YSK4 (setting [4]).
